Results published in PubChem BioAssay (NCI).
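Five concentrations, 48 hours, 96-well plates. GI50: concentration for 50% inhibition of growth. TGI marks complete inhibition of growth.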

What was measured:
Assay in all cases: NCI-60 cell line screen, 48 h
[1] = tested on: SW-620 colon
[2] = tested on: HCT-116 colon
[3] = tested on: UACC-257 melanoma
[4] = tested on: MDA-MB-435
[5] = tested on: SK-OV-3 ovarian
[6] = tested on: MALME-3M melanoma
[7] = tested on: RPMI-8226 leukemia
[8] = tested on: HL-60(TB) leukemia
[9] = tested on: HCT-15 colon
[10] = tested on: EKVX NSCLC
[11] = tested on: SK-MEL-28 melanoma
[12] = tested on: HS 578T breast
[13] = tested on: SNB-75 CNS
[14] = tested on: UO-31 renal
[15] = tested on: SF-268 CNS
[16] = tested on: MDA-MB-231 breast
[17] = tested on: MOLT-4 leukemia
[18] = tested on: M14 melanoma
[19] = tested on: IGROV1 ovarian
[20] = tested on: A549 NSCLC
[21] = tested on: SN12C renal
[22] = tested on: SF-539 CNS
[23] = tested on: BT-549 breast
[24] = tested on: UACC-62 melanoma
[25] = tested on: CAKI-1 renal
[26] = tested on: OVCAR-3 ovarian
[27] = tested on: HCC-2998 colon
[28] = tested on: SK-MEL-2 melanoma
[29] = tested on: LOX IMVI melanoma
[30] = tested on: RXF 393 renal
[31] = tested on: A498 renal
[32] = tested on: NCI/ADR-RES ovarian
[33] = tested on: SK-MEL-5 melanoma
[34] = tested on: PC-3 prostate
[35] = tested on: HOP-62 NSCLC
[36] = tested on: NCI-H522 lung
[37] = tested on: CCRF-CEM leukemia
[38] = tested on: NCI-H23 lung
[39] = tested on: KM12 colon
[40] = tested on: SNB-19 CNS
[41] = tested on: ACHN renal
[42] = tested on: U251 CNS
[43] = tested on: NCI-H226 lung
[44] = tested on: MCF7 breast
[45] = tested on: 786-0 renal
[46] = tested on: MDA-MB-468 breast
[47] = tested on: NCI-H460 lung
[48] = tested on: SF-295 CNS
[49] = tested on: TK-10 renal
[50] = tested on: COLO 205 colon
[51] = tested on: OVCAR-5 ovarian
[52] = tested on: HOP-92 NSCLC
[53] = tested on: DU-145 prostate
[54] = tested on: T-47D breast

Structure (SMILES): Cc1ccc(C2CC(c3ccc(S(=O)(=O)NCCNc4nc(Nc5ccc(F)cc5)nc(N(C)C)n4)cc3)=Nc3c(N)nc(N)nc3N2)cc1 (stereo not drawn)
- GI50 [1]: 8.04 µM
- TGI [1]: > 100 µM
- GI50 [2]: 3.81 µM
- TGI [2]: > 100 µM
- GI50 [3]: 26 µM
- TGI [3]: > 100 µM
- GI50 [4]: 8.79 µM
- TGI [4]: > 100 µM
- GI50 [5]: > 100 µM
- TGI [5]: > 100 µM
- GI50 [6]: 4.65 µM
- TGI [6]: 33.2 µM
- GI50 [7]: 2.94 µM
- TGI [7]: > 100 µM
- GI50 [8]: 2.94 µM
- TGI [8]: 20.2 µM
- GI50 [9]: 4.95 µM
- TGI [9]: > 100 µM
- GI50 [10]: 5.84 µM
- TGI [10]: > 100 µM
- GI50 [11]: 26.9 µM
- TGI [11]: > 100 µM
- GI50 [12]: 19.4 µM
- TGI [12]: > 100 µM
- GI50 [13]: > 100 µM
- TGI [13]: > 100 µM
- GI50 [14]: > 100 µM
- TGI [14]: > 100 µM
- GI50 [15]: 7.53 µM
- TGI [15]: > 100 µM
- GI50 [16]: 3.86 µM
- TGI [16]: > 100 µM
- GI50 [17]: 2.2 µM
- TGI [17]: 7.53 µM
- GI50 [18]: 4.56 µM
- TGI [18]: > 100 µM
- GI50 [19]: 64.4 µM
- TGI [19]: > 100 µM
- GI50 [20]: > 100 µM
- TGI [20]: > 100 µM
- GI50 [21]: > 100 µM
- TGI [21]: > 100 µM
- GI50 [22]: 3.29 µM
- TGI [22]: 78.9 µM
- GI50 [23]: 5.46 µM
- TGI [23]: 59.4 µM
- GI50 [24]: 20.9 µM
- TGI [24]: > 100 µM
- GI50 [25]: 8.06 µM
- TGI [25]: > 100 µM
- GI50 [26]: 9.93 µM
- TGI [26]: > 100 µM
- GI50 [27]: 2.93 µM
- TGI [27]: 41.1 µM
- GI50 [28]: 11.2 µM
- TGI [28]: 77.7 µM
- GI50 [29]: 2.09 µM
- TGI [29]: 5.11 µM
- GI50 [30]: 2.27 µM
- TGI [30]: 9.12 µM
- GI50 [31]: > 100 µM
- TGI [31]: > 100 µM
- GI50 [32]: > 100 µM
- TGI [32]: > 100 µM
- GI50 [33]: 4.98 µM
- TGI [33]: 20.6 µM
- GI50 [34]: 3.33 µM
- TGI [34]: > 100 µM
- GI50 [35]: > 100 µM
- TGI [35]: > 100 µM
- GI50 [36]: 21.3 µM
- TGI [36]: > 100 µM
- GI50 [37]: 2.81 µM
- TGI [37]: > 100 µM
- GI50 [38]: 78.8 µM
- TGI [38]: > 100 µM
- GI50 [39]: 4.56 µM
- TGI [39]: > 100 µM
- GI50 [40]: 13.1 µM
- TGI [40]: > 100 µM
- GI50 [41]: > 100 µM
- TGI [41]: > 100 µM
- GI50 [42]: 7.08 µM
- TGI [42]: > 100 µM
- GI50 [43]: > 100 µM
- TGI [43]: > 100 µM
- GI50 [44]: 3.08 µM
- TGI [44]: > 100 µM
- GI50 [45]: 7.06 µM
- TGI [45]: > 100 µM
- GI50 [46]: 2.72 µM
- TGI [46]: 8.52 µM
- GI50 [47]: 4.76 µM
- TGI [47]: > 100 µM
- GI50 [48]: 6.6 µM
- TGI [48]: > 100 µM
- GI50 [49]: > 100 µM
- TGI [49]: > 100 µM
- GI50 [50]: 11.5 µM
- TGI [50]: > 100 µM
- GI50 [51]: > 100 µM
- TGI [51]: > 100 µM
- GI50 [52]: 2.54 µM
- TGI [52]: 21 µM
- GI50 [53]: > 100 µM
- TGI [53]: > 100 µM
- GI50 [54]: 8.75 µM
- TGI [54]: > 100 µM
